In ChEMBL document CHEMBL2073922, “Cloning and characterization of the gene encoding the mouse peptide transporter PEPT2” (Biochem Biophys Res Commun, 2000):

Columns and labels:
Type in all cases: functional, cell-based
Conditions in all cases: Oocyte
[1] = target: Solute carrier family 15 member 2 (Mus musculus) (UniProt Q9ES07); assay: (§1) TP_TRANSPORTER: uptake (electrogenesis) in Xenopus laevis oocytes
[2] = target: T1, Solute carrier family 15 member 2 (Mus musculus) (UniProt Q9ES07); assay: as §1; remark: listed apart in the source
T1 sequence (whole entry): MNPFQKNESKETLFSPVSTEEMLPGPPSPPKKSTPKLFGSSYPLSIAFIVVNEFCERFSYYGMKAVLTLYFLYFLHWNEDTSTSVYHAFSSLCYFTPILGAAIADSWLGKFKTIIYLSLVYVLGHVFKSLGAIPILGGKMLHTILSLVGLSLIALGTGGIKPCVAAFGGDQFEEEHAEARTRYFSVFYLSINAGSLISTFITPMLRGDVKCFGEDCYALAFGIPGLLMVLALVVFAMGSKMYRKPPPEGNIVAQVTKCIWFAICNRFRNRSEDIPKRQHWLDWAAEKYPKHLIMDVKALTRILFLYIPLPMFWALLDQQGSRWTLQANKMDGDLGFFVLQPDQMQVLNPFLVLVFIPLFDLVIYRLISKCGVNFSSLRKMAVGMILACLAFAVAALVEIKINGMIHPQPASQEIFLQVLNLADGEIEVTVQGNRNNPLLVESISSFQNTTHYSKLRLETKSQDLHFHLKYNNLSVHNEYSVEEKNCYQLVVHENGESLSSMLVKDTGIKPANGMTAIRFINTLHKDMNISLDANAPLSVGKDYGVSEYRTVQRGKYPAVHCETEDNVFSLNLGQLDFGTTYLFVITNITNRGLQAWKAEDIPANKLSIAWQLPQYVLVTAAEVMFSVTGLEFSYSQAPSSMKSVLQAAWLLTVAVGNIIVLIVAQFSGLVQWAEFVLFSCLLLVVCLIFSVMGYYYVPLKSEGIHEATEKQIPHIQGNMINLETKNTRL

[3] = target: T1, Solute carrier family 15 member 2 (Mus musculus); assay: TP_TRANSPORTER: uptake in Xenopus laevis oocytes

BETA-ENDORPHIN
Activity [1]: substrate [+]

N[C@@H](CS)C(=O)NCC(=O)O
Activity [2]: substrate [+]

NC(=O)CC[C@H](NC(=O)[C@@H](N)Cc1ccccc1)C(=O)O
Activity [3]: substrate [+]

NCCC(=O)N[C@@H](Cc1c[nH]cn1)C(=O)O
Activity [2]: substrate [+]

NC(N)=NCCC[C@H](NC(=O)[C@@H](N)Cc1ccc(O)cc1)C(=O)O
Activity [2]: substrate [+]
